Assays:
Cannabinoid receptor 1 [1] = molecular target: T1, Cannabinoid receptor 1 (Homo sapiens, UniProt P21554); assay: biochemical; format: cell-based, HEK293
Description: Displacement of [3H]CP-55940 from human CB1 receptor expressed in HEK293 cells

Cannabinoid receptor 2 [2] = molecular target: T2, Cannabinoid receptor 2 (Homo sapiens, UniProt P34972); assay: Displacement of [3H]CP-55940 from human CB2 receptor expressed in CHO cells; format: cell-based
Homo sapiens = species: Homo sapiens; assay: Selectivity for human CB1 receptor over human CB2 receptor
Cannabinoid receptor 2 [3] = molecular target: T2, Cannabinoid receptor 2; assay: Binding affinity to CB2 receptor
Cannabinoid receptor 1 [4] = molecular target: T1, Cannabinoid receptor 1
Description: Binding affinity to CB1 receptor

T1 sequence (P21554 whole entry): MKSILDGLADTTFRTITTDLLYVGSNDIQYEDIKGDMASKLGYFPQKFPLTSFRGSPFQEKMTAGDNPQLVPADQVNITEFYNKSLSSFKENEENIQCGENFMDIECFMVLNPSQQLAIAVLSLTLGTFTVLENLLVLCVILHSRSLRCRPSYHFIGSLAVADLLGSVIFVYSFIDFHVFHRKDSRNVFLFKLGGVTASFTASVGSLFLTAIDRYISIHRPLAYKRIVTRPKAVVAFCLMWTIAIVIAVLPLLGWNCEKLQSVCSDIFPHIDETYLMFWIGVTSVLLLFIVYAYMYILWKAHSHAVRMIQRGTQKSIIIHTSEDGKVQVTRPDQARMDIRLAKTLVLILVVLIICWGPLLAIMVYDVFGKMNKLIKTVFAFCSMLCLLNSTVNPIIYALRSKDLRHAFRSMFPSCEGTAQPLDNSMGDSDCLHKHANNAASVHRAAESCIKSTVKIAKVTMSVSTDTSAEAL
T2 sequence (P34972 whole entry): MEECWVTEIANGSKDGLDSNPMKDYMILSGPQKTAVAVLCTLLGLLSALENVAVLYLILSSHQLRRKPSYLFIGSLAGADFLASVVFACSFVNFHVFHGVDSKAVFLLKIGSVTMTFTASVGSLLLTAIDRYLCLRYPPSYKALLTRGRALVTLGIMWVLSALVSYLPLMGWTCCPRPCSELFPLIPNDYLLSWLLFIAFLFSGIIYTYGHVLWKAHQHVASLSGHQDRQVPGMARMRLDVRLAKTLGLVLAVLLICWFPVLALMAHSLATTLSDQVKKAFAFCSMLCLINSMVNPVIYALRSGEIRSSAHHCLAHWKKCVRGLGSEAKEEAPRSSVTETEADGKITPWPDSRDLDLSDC

Row | Structure (SMILES) | Ki (Cannabinoid receptor 1 [1]) | Ki (Cannabinoid receptor 2 [2]) | Ratio Ki (Homo sapiens) | Ki (Cannabinoid receptor 2 [3]) | Ki (Cannabinoid receptor 1 [4])
1 | CC(=O)SC(CCc1ccccc1)[C@H]1C(=O)N(c2ccc(F)cc2)[C@@H]1c1ccc(O)cc1 (stereo partly specified) | 52.8 nM | 282 nM | 5 | – | –
2 | O=C(NN1CCCCC1)c1nn(-c2ccc(Cl)cc2Cl)c2c1CCCc1cc(Cl)ccc1-2 | – | – | – | 21 nM | –
3 | CS(=O)(=O)C(=C1CN(C(c2ccc(Cl)cc2)c2ccc(Cl)cc2)C1)c1cc(F)cc(F)c1 | – | – | – | – | < 100 nM
4 | O=C1[C@@H](CCC(O)c2ccc(F)cc2)[C@H](c2ccc(O)cc2)N1c1ccc(F)cc1 (stereo partly specified) | 301 nM | > 1820 nM | – | – | –
5 | O=C(NN1CCCCC1)c1nn(-c2ccc(Cl)cc2Cl)c(-c2ccc(-c3cccnc3)cc2)c1CO | – | – | – | 2310 nM | 5.8 nM

Results, then the compound that gave them:

Row | Ki (Cannabinoid receptor 1 [1]) | Ki (Cannabinoid receptor 2 [2]) | Ratio Ki (Homo sapiens) | Ki (Cannabinoid receptor 2 [3]) | Ki (Cannabinoid receptor 1 [4]) | Structure (SMILES)
6 | 451 nM | 1240 nM | – | – | – | COc1ccc(C2C(CCS(=O)(=O)c3ccccc3)C(=O)N2c2ccccc2)cc1 (stereo unspecified)
7 | – | – | – | > 10000 nM | – | COc1ccc(-c2oc3cc(OC)ccc3c2C(=O)c2ccc(C#N)cc2)cc1
8 | 839 nM | 194 nM | – | – | – | COc1ccc([C@@H]2[C@@H](Cc3cc4ccccc4o3)C(=O)N2c2ccccc2)cc1
9 | 244 nM | 1090 nM | – | – | – | COc1ccc([C@@H]2[C@@H](CCCc3cccnc3)C(=O)N2c2ccccc2)cc1

Reference: ChEMBL document CHEMBL1144779, “Identification of novel cannabinoid CB1 receptor antagonists by using virtual screening with a pharmacophore model” (J Med Chem, 2008)
